Paper PMC8817233 (Journal of medicinal chemistry, 2021)
Entries after “also recorded” stand apart in the source; their conditions may differ.

Legend:
[1] = biological target: T1, β-catenin in SW480 cell lysates (Homo sapiens, UniProt P35222); test: Streptavidin pull-down from cell lysates; format: binding; conditions: 10 μM
T1 sequence (P35222 1-781): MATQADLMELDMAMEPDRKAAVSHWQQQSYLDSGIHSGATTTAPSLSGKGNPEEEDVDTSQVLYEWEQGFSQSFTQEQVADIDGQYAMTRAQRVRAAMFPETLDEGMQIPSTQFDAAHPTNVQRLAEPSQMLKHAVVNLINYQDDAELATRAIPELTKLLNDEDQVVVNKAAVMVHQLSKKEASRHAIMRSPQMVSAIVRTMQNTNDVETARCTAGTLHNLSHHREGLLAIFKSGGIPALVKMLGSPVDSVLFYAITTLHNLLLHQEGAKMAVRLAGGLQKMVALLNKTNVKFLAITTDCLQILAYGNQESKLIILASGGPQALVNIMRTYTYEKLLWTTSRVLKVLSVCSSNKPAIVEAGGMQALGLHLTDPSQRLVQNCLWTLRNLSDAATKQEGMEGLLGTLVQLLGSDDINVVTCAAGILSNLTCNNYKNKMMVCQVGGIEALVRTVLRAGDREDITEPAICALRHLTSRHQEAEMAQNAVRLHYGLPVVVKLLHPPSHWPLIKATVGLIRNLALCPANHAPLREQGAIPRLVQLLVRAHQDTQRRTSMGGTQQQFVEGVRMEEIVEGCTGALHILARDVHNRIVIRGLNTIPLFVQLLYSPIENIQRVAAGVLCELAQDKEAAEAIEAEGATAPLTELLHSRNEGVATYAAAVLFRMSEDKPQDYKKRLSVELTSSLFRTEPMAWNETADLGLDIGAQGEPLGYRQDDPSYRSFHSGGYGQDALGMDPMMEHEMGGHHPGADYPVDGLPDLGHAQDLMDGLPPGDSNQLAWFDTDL

[2] = biological target: T2, β-catenin R1C (residues 138–781) (Homo sapiens, UniProt P35222); test: Streptavidin pull-down with β-catenin truncate; format: binding
T2 sequence (P35222 138-781): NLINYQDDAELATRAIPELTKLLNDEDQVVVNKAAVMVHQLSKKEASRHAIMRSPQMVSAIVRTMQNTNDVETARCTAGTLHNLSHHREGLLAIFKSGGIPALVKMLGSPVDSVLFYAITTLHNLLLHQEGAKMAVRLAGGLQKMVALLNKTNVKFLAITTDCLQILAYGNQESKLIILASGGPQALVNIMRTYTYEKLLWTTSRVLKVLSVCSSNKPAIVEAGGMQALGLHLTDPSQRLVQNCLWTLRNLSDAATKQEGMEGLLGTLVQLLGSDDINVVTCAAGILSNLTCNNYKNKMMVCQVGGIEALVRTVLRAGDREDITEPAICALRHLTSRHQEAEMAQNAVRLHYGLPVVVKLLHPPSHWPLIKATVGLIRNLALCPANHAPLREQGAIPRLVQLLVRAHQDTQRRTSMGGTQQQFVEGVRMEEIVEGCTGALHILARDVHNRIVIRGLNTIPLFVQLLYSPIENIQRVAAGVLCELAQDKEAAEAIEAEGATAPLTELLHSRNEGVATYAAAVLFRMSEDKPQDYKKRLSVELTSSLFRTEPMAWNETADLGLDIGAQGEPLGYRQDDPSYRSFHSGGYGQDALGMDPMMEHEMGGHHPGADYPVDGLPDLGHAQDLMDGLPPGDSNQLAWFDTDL

[3] = biological target: T3, purified full-length β-catenin (Homo sapiens, UniProt P35222); test: Streptavidin pull-down with purified protein; format: binding; conditions: Western blot, from 1 μM
T3 sequence (P35222 1-781): T1 sequence (P35222 1-781)

[4] = tested on: Axin2 and cyclin D1 in SW480 and Wnt 3a-activated MDA-MB-231 cells; test: Western blot of Wnt target proteins; format: cell-based, human; conditions: SW480 and Wnt 3a-activated MDA-MB-231, 24 h
[5] = tested on: PDX 4013 tumors; test: PDX 4013 TNBC xenograft, tumor growth and tolerability; conditions: 90 mg/kg orally daily in saline, 5 days
[6] = Mouse PK study; format: in vivo, C57BL/6 mice; conditions: p.o., 20 mg/kg
[7] = tested on: TNBC cells; test: Clonogenic assay; format: cell-based
[8] = tested on: MDA-MB-231 cells; test: Scratch wound healing assay; format: cell-based; conditions: 10% serum, mitomycin 10 μg/mL
[9] = tested on: MDA-MB-231 cells; test: 3D spheroid BME cell invasion assay; format: cell-based; conditions: day 6
[10] = tested on: normal mammary epithelial MCF10A cells; test: FACS annexin V/PI apoptosis, normal cells; format: cell-based, human; conditions: 72 h treatment
[11] = Hepatic microsome stability, human; format: in vitro ADME; conditions: liver microsomes, pH 7.4
[12] = Hepatic microsome stability, mouse; format: in vitro ADME; conditions: liver microsomes, pH 7.4
[13] = biological target: T4, β-catenin/BCL9 PPI (Homo sapiens, UniProt P35222); test: AlphaScreen competitive inhibition assay of the β-catenin/BCL9 PPI; format: binding; conditions: for fold less potent than ZW4864 (β-catenin/BCL9 Ki): compared with ZW4864
T4 sequence (P35222 1-781): T1 sequence (P35222 1-781)

[14] = tested on: β-catenin-expressing HEK293 cells; test: TOPFlash luciferase reporter assay, HEK293; format: cell-based; conditions: 200 μM, 24 h
[15] = biological target: BCL9 HD2 (Homo sapiens) (UniProt O00512); conditions: cited from earlier work
Chain of BCL9 HD2 (Homo sapiens) (O00512 351-374): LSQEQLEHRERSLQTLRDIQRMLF

Compound: CC(C)(Oc1cccc(N2CCC[C@@H](C(=O)N(CCOCCOCCNC(=O)CCCC[C@@H]3SC[C@@H]4NC(=O)N[C@@H]43)Cc3ccc(-c4cn[nH]c4)cc3)C2)c1)C(=O)N1CCNCC1 [Biotin-ZW4864, (R)-N-(4-(1H-Pyrazol-4-yl)benzyl)-1-(3-((2-methyl-1-oxo-1-(piperazin-1-yl)propan-2-yl)oxy)phenyl)-N-(2-(2-(2-(5-((3aS,4S,6aR)-2-oxohexahydro-1H-thieno[3,4-d]imidazol-4-yl)pentanamido)ethoxy)ethoxy)ethyl)piperidine-3-carboxamide]
- binding to β-catenin in SW480 cell lysates [1]: effectively bind with β-catenin in SW480 cell lysates
- pull-down of β-catenin R1C ([2]; 10 μM): did not pull down β-catenin R1C
- pull-down of β-catenin R1C ([2]; 50 μM): pulled down β-catenin R1C
- pull-down of purified full-length β-catenin [3]: bound with the purified full-length β-catenin in a concentration-dependent manner starting at 1 μM; also recorded: pulled down the full-length β-catenin at 1 μM

Compound: CC(C)(Oc1cccc(N2CCC[C@@H](C(=O)N(Cc3ccc(-c4cn[nH]c4)cc3)C3CC3)C2)c1)C(=O)N1CCNCC1.Cl [ZW4864, (R)-N-(4-(1H-Pyrazol-4-yl)benzyl)-N-cyclopropyl-1-(3-((2-methyl-1-oxo-1-(piperazin-1-yl)propan-2-yl)oxy)phenyl)piperidine-3-carboxamide]
- expression of proteins Axin2 and cyclin D1 (Western blot) [4]: substantially decreased
- body weight and toxicity [5]: no significant decrease in weight or major toxicity issues
- tumor growth compared with vehicle [5]: a variation in tumor growth
- CL [6]: 51.10 mL/min/kg
- colony formation [7]: inhibited colony formation
- MDA-MB-231 cell migration [8]: suppressed MDA-MB-231 cell migration in a dose-dependent manner
- 3D spheroid cell invasion [9]: suppressed MDA-MB-231 cell invasion in a dose-dependent manner
- apoptosis (FACS annexin V/PI) [10]: sparing normal mammary epithelial MCF10A cells
- microsomal CLint at 1 μM [11]: 18 µL/min/mg
- half-life at 1 μM [12]: 9.6 min

Compound: CC(C)c1ccc(CN(C(=O)[C@@H]2CCCN(c3cccc(OC(C)(C)C(=O)N4CCNCC4)c3)C2)C2CC2)cc1.Cl [compound 7, (R)-N-Cyclopropyl-N-(4-isopropylbenzyl)-1-(3-((2-methyl-1-oxo-1-(piperazin-1-yl)propan-2-yl)oxy)phenyl)piperidine-3-carboxamide]
- fold more potent than 3 (β-catenin/BCL9 Ki) ([13]; compared with 3): 2 fold

Compound: CC(C)(Oc1cccc(N2CCC[C@@H](C(=O)N(Cc3ccc(-c4ccn[nH]4)cc3)C3CC3)C2)c1)C(=O)N1CCNCC1.Cl [compound 17, (R)-N-(4-(1H-Pyrazol-5-yl)benzyl)-N-cyclopropyl-1-(3-((2-methyl-1-oxo-1-(piperazin-1-yl)propan-2-yl)oxy)phenyl)piperidine-3-carboxamide]
- fold less potent than ZW4864 (β-catenin/BCL9 Ki) [13]: 10 fold

Compound: Cl.Cn1cc(-c2ccc(CN(C(=O)[C@@H]3CCCN(c4cccc(OC(C)(C)C(=O)N5CCNCC5)c4)C3)C3CC3)cc2)cn1 [compound 18, (R)-N-Cyclopropyl-1-(3-((2-methyl-1-oxo-1-(piperazin-1-yl)propan-2-yl)oxy)phenyl)-N-(4-(1-methyl-1H-pyrazol-4-yl)benzyl)piperidine-3-carboxamide]
- fold less potent than ZW4864 (β-catenin/BCL9 Ki) [13]: 89 fold

Compound: CN1CCN(C(=O)C(C)(C)Oc2cccc(N3CCC[C@@H](C(=O)N(Cc4ccc(-c5cn[nH]c5)cc4)C4CC4)C3)c2)CC1 [compound 19, (R)-N-(4-(1H-Pyrazol-4-yl)benzyl)-N-cyclopropyl-1-(3-((2-methyl-1-(4-methylpiperazin-1-yl)-1-oxopropan-2-yl)oxy)phenyl)piperidine-3-carboxamide]
- TOPFlash luciferase activity, in words [14]: did not show any activity

Compound: CCN(Cc1ccc(-c2cn[nH]c2)cc1)C(=O)[C@@H]1CCCN(c2cccc(OC(C)(C)C(=O)N3CCNCC3)c2)C1.Cl [compound 21, (R)-N-(4-(1H-Pyrazol-4-yl)benzyl)-N-ethyl-1-(3-((2-methyl-1-oxo-1-(piperazin-1-yl)propan-2-yl)oxy)phenyl)piperidine-3-carboxamide]
- microsomal CLint at 1 μM [11]: 24 µL/min/mg
- half-life at 1 μM [12]: 7.7 min

Compound: CCOCCN(Cc1ccc(-c2cn[nH]c2)cc1)C(=O)[C@@H]1CCCN(c2cccc(OC(C)(C)C(=O)N3CCNCC3)c2)C1.Cl [compound 22, (R)-N-(4-(1H-Pyrazol-4-yl)benzyl)-N-(2-ethoxyethyl)-1-(3-((2-methyl-1-oxo-1-(piperazin-1-yl)propan-2-yl)oxy)phenyl)piperidine-3-carboxamide]
- inhibitory affinity for β-catenin/BCL9 PPI, in words ([13]; AlphaScreen, values only in Figure 2B): maintained low μM inhibitory affinities

Compound: beta-catenin (from UniProt P35222)
- Kd [15]: 470 nM
